Measurements taken from ChEMBL document CHEMBL1201862, “PubChem BioAssay data set” (2004).
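Values below derive from 48-hour exposures of cells grown in 96-well plates, with endpoints linearly interpolated between the two concentrations bracketing the appropriate inhibition level. GI50 = concentration required for 50% inhibition of growth.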 Calls of active or inactive are those of the source. Cut-off read from the data, not from the text of the source: active = GI50 up to about 1.1 µM and inactive = higher.

What was measured:
Experiment in all cases: growth of human tumour cells (NCI), 48 h
KM-20L2 = system: KM-20L2
HOP-18 = system: HOP-18
SNB-78 = system: SNB-78
RXF 631 = system: RXF 631
DLD-1 = system: DLD-1
M19-MEL = system: M19-MEL
DMS-273 = system: DMS-273
XF498 = system: XF498
DMS-114 = system: DMS-114

Row | Compound | GI50 (KM-20L2) | GI50 (HOP-18) | GI50 (SNB-78) | GI50 (RXF 631) | GI50 (DLD-1) | GI50 (M19-MEL) | GI50 (DMS-273) | GI50 (XF498) | GI50 (DMS-114)
1 | CC(=O)OCC1OC(OCc2ccccc2)C(Br)C(OC(C)=O)C1OC(C)=O (stereo not given) | > 100 µM (inactive) | > 100 µM (inactive) | > 100 µM (inactive) | > 100 µM (inactive) | > 100 µM (inactive) | > 100 µM (inactive) | > 100 µM (inactive) | > 100 µM (inactive) | –
2 | CC(=O)C1CC=C(C)CC1 (stereo not given) | > 100 µM (inactive) | > 100 µM (inactive) | > 100 µM (inactive) | > 100 µM (inactive) | > 100 µM (inactive) | > 100 µM (inactive) | > 100 µM (inactive) | > 100 µM (inactive) | > 100 µM (inactive)
3 | Cc1cccc(NC(=O)CC#N)c1Cl | > 100 µM (inactive) | – | > 100 µM (inactive) | – | > 100 µM (inactive) | > 100 µM (inactive) | > 100 µM (inactive) | > 100 µM (inactive) | –
4 | O=C1c2ccc3c4ccccc4n(-c4ccccc4)c3c2C(=O)N1c1ccc(Cl)cc1 | > 100 µM (inactive) | – | > 100 µM (inactive) | > 100 µM (inactive) | > 100 µM (inactive) | > 100 µM (inactive) | > 100 µM (inactive) | – | > 100 µM (inactive)
5 | CCCCSN1C(=O)c2ccccc2C1=S | – | – | 49.3 µM (inactive) | > 100 µM (inactive) | 44.8 µM (inactive) | 56.2 µM (inactive) | 45.3 µM (inactive) | > 100 µM (inactive) | 45.5 µM (inactive)
6 | CCOC1(COP(=O)(OCc2ccccc2)OCc2ccccc2)COC(COP(=O)(OCc2ccccc2)OCc2ccccc2)(OCC)CO1 (stereo not given) | > 100 µM (inactive) | > 100 µM (inactive) | > 100 µM (inactive) | 9.44 µM (inactive) | > 100 µM (inactive) | 15.5 µM (inactive) | > 100 µM (inactive) | > 100 µM (inactive) | –
7 | CCOC(=O)C1=C(C)N(c2ccccc2)C2=C(C(=O)N(c3ccccc3)C2c2ccccc2)C1c1ccccc1 (stereo not given) | > 100 µM (inactive) | > 100 µM (inactive) | > 100 µM (inactive) | > 100 µM (inactive) | > 100 µM (inactive) | > 100 µM (inactive) | > 100 µM (inactive) | > 100 µM (inactive) | > 100 µM (inactive)
8 | O=C(Nc1ccc(Nc2ccc(NC(=O)c3ccccc3)c3c2C(=O)c2ccccc2C3=O)c2c1C(=O)c1ccccc1C2=O)c1ccccc1 | > 100 µM (inactive) | > 100 µM (inactive) | > 100 µM (inactive) | > 100 µM (inactive) | > 100 µM (inactive) | > 100 µM (inactive) | > 100 µM (inactive) | – | > 100 µM (inactive)
9 | O=C1C=CC(=O)C2C1Cc1ccccc1C2c1ccccc1 (stereo not given) | 50 µM (inactive) | 53.6 µM (inactive) | – | – | 56.2 µM (inactive) | 30.1 µM (inactive) | 58.6 µM (inactive) | – | 22.2 µM (inactive)
10 | CC(=O)O[C@]1(C)OC(=O)[C@@H](C)N1[N+](=O)[O-] | > 100 µM (inactive) | > 100 µM (inactive) | > 100 µM (inactive) | – | > 100 µM (inactive) | > 100 µM (inactive) | 96.6 µM (inactive) | < 0.01 µM (active) | > 100 µM (inactive)
11 | COc1ccccc1/C=C1\CCC(Cc2ccccc2)(CN(C)C)C1=O (stereo not given) | 0.644 µM (active) | > 26.4 µM (inactive) | 2.13 µM (inactive) | 1.85 µM (inactive) | 0.414 µM (active) | 2.98 µM (inactive) | 0.294 µM (active) | 4.3 µM (inactive) | 2.23 µM (inactive)
12 | COC1C(CO)OC(n2c3c(Cl)cccc3c3c4c(c5c6cccc(Cl)c6[nH]c5c32)C(=O)NC4=O)C(O)C1O (stereo not given) | 0.586 µM (active) | – | 0.631 µM (active) | 0.249 µM (active) | 0.568 µM (active) | 0.274 µM (active) | 0.208 µM (active) | 0.27 µM (active) | 0.258 µM (active)
13 | CCN(CC)CCOC(=O)/C(=C/c1ccc(OC)cc1)c1cc(OC)c(OC)c(OC)c1 | 11.9 µM (inactive) | 30.4 µM (inactive) | 9.98 µM (inactive) | 7.66 µM (inactive) | 28.1 µM (inactive) | 7.26 µM (inactive) | 4.29 µM (inactive) | – | 4.81 µM (inactive)
14 | Cc1cc(C(=C2C=CC(=[N+](C)C)C=C2)c2ccc([N+](C)(C)C)cc2)ccc1N(C)C | 5.48 µM (inactive) | – | 10.7 µM (inactive) | 7.91 µM (inactive) | 6.65 µM (inactive) | 5.52 µM (inactive) | 5.01 µM (inactive) | 1.36 µM (inactive) | 4.67 µM (inactive)
15 | O=C(/C=C/c1ccc(O)c(O)c1)c1ccc(O)cc1O [BUTEIN] | 17.1 µM (inactive) | – | 20.8 µM (inactive) | – | 13.9 µM (inactive) | 14 µM (inactive) | 10.6 µM (inactive) | – | 2.47 µM (inactive)
